# From PMC5399052, “Integrating in vitro data and physiologically based kinetic (PBK) modelling to assess the in vivo potential developmental toxicity of a series of phenols” (Archives of Toxicology, 2016)
# Where two headings read alike, the source gives them in different places. Marks after values point to notes of the source that are not given here.
# What was measured:
# in vivo = settings: female, rat GD11, allometrically scaled from GD20 value of Varma and Ramakrishnan [1985], read-out: CLPL, transplacental maternal-foetal clearance rate (converted)
# [1] = rat at GD20; ref Varma and Ramakrishnan [1985]; cited from earlier work
# in vitro [2] = settings: human, Caco-2
# Procedure: (§1) Caco-2 cells (passages 37–40) were cultured in DMEM containing 25 mM HEPES (pH 7.4) supplemented with 10% (v/v) heat-inactivated FCS, 4500 mg/l glucose, 2 mM L-glutamine, 1% (v/v) minimal essential medium non-essential amino acids, 10,000 U/ml penicillin and 10 mg/ml streptomycin and maintained in polystyrene cell culture flasks (Corning, Amsterdam, the Netherlands) in a 5% CO2-humidified atmosphere at 37 °C. Cells were harvested after exposure to a trypsin–EDTA solution. Next, the cells were seeded onto Transwell® inserts (0.4 µm pored polycarbonate membrane, 12 mm diameter), at a density of 10^5 cells/cm^2. Cell culture medium (0.5 and 1.5 ml in the apical and basolateral compartment, respectively) was changed every two days.
# (§2) Transport experiments were performed between day 20 and 23 post-seeding. Prior to the transport experiments, the cell culture medium was removed and cells were equilibrated in HBSS for 30–45 min in a 5% CO2-humidified atmosphere at 37 °C. In these 45 min, the integrity of the cell monolayer was examined by measuring the Trans Epithelial Electrical Resistance (TEER) of the cell layer using a Millicell ERS-2 Volt–Ohm Meter (Millipore, USA). Only cell layers with a TEER value between 500 and 1000 Ω cm^2 were used for the transport experiments. The transport buffer for the apical compartment consisted of HBSS containing 10 mM HEPES (pH 6.5) and 10 mM sodium taurocholate and the transport buffer for the basolateral compartment consisted of HBSS (pH 7.4) with 30 mg/ml bovine serum albumin. At first, 1.5 ml pre-warmed (37 °C) transport buffer was added to the basolateral compartment. Then, the transport experiments were started by adding 0.5 ml pre-warmed transport buffer containing the test compound (100 µM) to the apical compartment. After 60-min incubation in a 5% CO2-humidified atmosphere at 37 °C, a 75 µl sample was taken from the basolateral compartment and then from the apical compartment. Each sample was added to 150 µl ice-cold methanol, vortexed and put on ice immediately. […] Samples were analysed by UPLC–PDA (see “Quantification of analytes” section) for the presence of the test compound and possible metabolites.
# (§3) TEER values were also measured at the end of the transport experiment, during the first washing step and compared to the TEER values measured before the transport experiment in order to assess toxicity of the test compound to the cell monolayer. […]
# (§4) The apparent permeability coefficients (P app; cm/s) were calculated using the following algorithm: Papp=ΔQ/Δt/A∗C0 where P app is the apparent permeability coefficient (cm/s), ΔQ/Δt (nmol/s) is the amount of the test compound transported to the receiver chamber in a certain time period, A is the transwell membrane surface area (cm^2) and C 0 is the initial concentration of the test compound in the donor compartment (µM).
# (§5) In order to assess the validity of the P app calculations for this experiment, the linearity of transport from the apical to the basolateral side was verified by taking samples from the basolateral side at t = 15, 30, 60 and 90 min, at a test concentration of 100 µM. […] The recovery of the test compound in each transport experiment was calculated with a mass balance equation, taking into account the amount of the test compound in the apical and basolateral compartment and the amount in the cells and/or filter of the Transwell® insert.
# [3] = In vitro placental transport study (BeWo b30 transwell); settings: human
# Procedure: (§6) BeWo cells (passages 28–31) were cultured in DMEM with […] and supplemented with 10% (v/v) heat-inactivated FCS, 2 mM L-glutamine, 10,000 U/ml penicillin and 10 mg/ml streptomycin and maintained in polystyrene cell culture flasks (Corning, Amsterdam, the Netherlands) in a 5% CO2-humidified atmosphere at 37 °C. Cells were harvested after exposure to a trypsin–EDTA solution. Next, the cells were seeded onto Transwell® inserts (0.4-µm pored polycarbonate membrane, 12 mm diameter), with a density of 10^5 cells/cm^2. Cell culture medium (0.5 and 1.5 ml in the apical and basolateral compartment, respectively) was changed daily.
# (§7) Transport experiments were performed 6 days post-seeding. The transport buffer consisted of HBSS with 30 mg/ml bovine serum albumin (apical compartment) and 10 mg/ml bovine serum albumin (basolateral compartment) representing mid- and late gestational maternal and embryonic/foetal rat plasma albumin levels, respectively (Honda et al. [2008]; Mcmullin et al. [2008]; Yeoh and Morgan [1974]). The transport experiments were performed for the same compounds and according to the same method as described for the Caco-2 transport experiments, except that only cell layers with a TEER value >190 Ω cm^2 were used for the transport experiments. The BeWo transport studies encompassed four independently performed experiments including two replicates in each assay. Samples were analysed by UPLC–PDA (see “Quantification of analytes” section) for the presence of the test compound and possible metabolites. The apparent permeability coefficients were calculated using the same method as described for the Caco-2 transport experiments.
# BeWo cells = assay: as above
# Procedure: as §6, §7
# rat liver microsomes [4] = assay: Glucuronidation of phenols by rat liver microsomes; settings: for Vmax(app) glucuronidation (± SD): rat liver microsomes, 10 mM UDPGA, alamethicin activated
# Procedure: (§8) The formation of glucuronide metabolites of the p-substituted phenols was investigated in incubations with rat liver microsomes. […] To obtain maximum glucuronidation activity, the microsomes were activated by preincubating the incubation mixture with 0.025 mg/ml alamethicin added from a 200 times concentrated stock solution in methanol, during 15 min on ice (Fisher et al. [2000]). Subsequently, the incubations were started after a 1-min preincubation at 37 °C by addition of the substrate from a 200 times concentrated stock solution in DMSO and incubated in a shaking water bath at 37 °C for 45 min. The reactions were terminated by addition of ice-cold acetonitrile (20% v/v). In the blank incubation mixtures, UDPGA was omitted. Samples were analysed by UPLC–PDA (see “Quantification of analytes” section). No reference standards of the glucuronide metabolites were commercially available. […] At first, retention times from the UPLC–PDA chromatograms of the parent compound of the blank incubation were compared with the retention times of newly appearing peaks in chromatograms of the incubation mixtures, as the glucuronide conjugates are expected to elute earlier compared with their parent compounds due do their increased hydrophilicity. […] For this purpose, a volume of 10 µl of the incubation mixture of the glucuronidation assay (that was not terminated by the addition of ice-cold acetonitrile) was added to 90 µl of 200 mM potassium phosphate (pH 6.2). Then, 4 µl of glucuronidase (200 units/ml) was added, and the mixtures were incubated for 60 min in a shaking water bath at 37 °C. The reactions were terminated by addition of ice-cold acetonitrile (20% v/v) and were put on ice. Control samples were treated under the same conditions, but without glucuronidase.
# (§9) The conditions of the incubation assays were optimised to obtain linear reaction rates with respect to incubation time and protein concentration and non-limiting cofactor levels were applied. […] To obtain maximum glucuronidation activity, the microsomes were activated by preincubating the incubation mixture with 0.025 mg/ml alamethicin added from a 200 times concentrated stock solution in methanol, during 15 min on ice (Fisher et al. [2000]).
# (§10) Kinetic constants for the glucuronidation of the p-substituted phenols were derived by fitting the data to the standard Michaelis–Menten equation; v=Vmax∗S/Km+[S] in which [S] represents the substrate concentration, V max the maximum velocity and K m the Michaelis–Menten constant for the formation of the glucuronide metabolites. Data analysis was accomplished using GraphPad Prism 5.0 software (GraphPad, San Diego, CA, USA). […] The in vivo K m value was assumed to be the same to the in vitro K m value.
# (§11) Samples from the BeWo and Caco-2 transport experiments were centrifuged at 13,000 rpm at 5 °C for 15 min. Next 7.5 µl of the supernatant of each sample was analysed by UPLC (Waters Acquity). Samples from the glucuronidation assays were centrifuged at 15,000 rpm at 5 °C for 5 min. […] All samples, except those from transport studies with fluorescein, were analysed on a Waters BEH C18 1.7 µm column, 2.1 × 50 mm, with nanopure water (0.1% TFA) (A) and pure acetonitrile (B) applying a gradient elution. The start condition was 100:0 (A:B), changing to 90:10 from 1 to 2 min, then to 10:90 from 2 to 4 min (or from 2 to 3 min when analysing samples for p-heptyloxyphenylglucuronide), remaining at this ratio for 0.5 min and then rapidly declining to the start condition. The flow rate was 0.6 ml/min.
# [5] = In vivo developmental toxicity study, rats exposed at GD11; settings: female, rat
# Source text: (§12) The BMDL05 values of the in vivo study were derived using the BMDS version 2.6.
# Balb/c 3T3 clone A31 = settings: BSA levels reflecting in vitro and in vivo situation
# Procedure: (§13) In vitro concentration–response data obtained with the EST were translated to in vivo dose–response values by applying PBK-based reverse modelling, performed as described by Strikwold et al. ([2013]) with some modifications. […] In vivo albumin and fat levels that are used in the extrapolation rules were adjusted to values that correspond to embryos/foetuses during mid-/late gestation. […] The vitro lipid fraction and albumin levels resembling the situation in the EST were 0.04% and 4.8 mg/ml, respectively (Verwei et al. [2006]).
# [6] = cited from earlier work; for Concentration in EST culture medium over time: without cells, ref Strikwold et al. [2012]
# [7] = rat, ref Humphrey et al. [1980], cited from earlier work
# rat liver microsomes [8] = settings: cited from earlier work
# Caco-2 cells = assay: in vitro
# Procedure: as §1, §2, §3, §4, §5
# in vitro [9] = settings: rat, pH 7.4
# Procedure: as §8, §9, §10, §11
# rat = assay: In vitro PBK-based reverse dosimetry (predicted developmental toxicity); settings: BMDL05 based on Cmax
# Procedure: as §13, §12
# ES-D3 cells = settings: ref Strikwold et al. [2012]; cited from earlier work
# albumin = settings: cited from earlier work
# whole embryo culture = settings: cited from earlier work
# [10] = P app ratio to antipyrine multiplied by antipyrine clearance 0.18 l/h, GD11
structure (smiles),measurement,setting,value
"Cc1cc(=O)n(-c2ccccc2)n1C [Antipyrine, antipyrine]",clearance,in vivo,3 mL/min
same,Transplacental clearance value,[1],7.47 mL/min/kg
Oc1ccccc1 [Phenol],"Papp A→B at 60 min, 100 µM",in vitro [2],48.4 ± 8.6 ×10⁻⁶ cm/s
same,"Papp A→B at 60 min, 100 µM",[3],41.6 ± 3.4 ×10⁻⁶ cm/s
same,P app fold higher than antipyrine,BeWo cells; BeWo,1.03 fold
same,"CLPL, predicted rat transplacental clearance",BeWo cells; [10],0.19 L/h
same,Scaled catalytic efficiency,rat liver microsomes [4]; scaled to rat liver,0.44 l/h/g liver
same,Scaled Vmax(app),rat liver microsomes [4]; scaled with microsomal protein yield 38 mg/g rat liver,205 µmol/h/g liver
same,NOAEL,[5],333 mg/kg
same,Effect of bovine serum albumin level on in vitro cytotoxicity,Balb/c 3T3 clone A31,not affected
same,Loss in the EST,"[6]; 10-day EST, ref Strikwold et al. [2013]",39%
same,Concentration in EST culture medium over time,[6],decreased in time
same,"ka, uptake rate from in situ intestinal perfusion",[7],7.62^b /h
same,"ka, uptake rate from in situ intestinal perfusion",[7]; listed as phenol,7.62 h⁻¹
same,Km,"rat liver microsomes [8]; read-out: Km(app) glucuronidation (± SD), ref Strikwold et al. [2013]",465 ± 66 µM
same,Vmax(app) glucuronidation (± SD),rat liver microsomes [8]; ref Strikwold et al. [2013],90 ± 4 nmol/min/mg microsomal protein
"O=C1OC2(c3ccc(O)cc3Oc3cc(O)ccc32)c2ccccc21 [fluorescein, reference compound]",P app / transport fold lower than antipyrine,BeWo cells; BeWo,11 fold
"Oc1ccc(F)cc1 [p-Fluorophenol, p-fluorophenol]","Papp A→B at 60 min, 100 µM",in vitro [2],47.7 ± 13.8 ×10⁻⁶ cm/s
same,"ka, predicted oral absorption coefficient","Caco-2 cells; rat, Caco-2, 100 µM",7.52 h⁻¹
same,"Papp A→B at 60 min, 100 µM",[3],34.2 ± 3.3 ×10⁻⁶ cm/s
same,"CLPL, predicted rat transplacental clearance",BeWo cells; [10],0.15 L/h
same,Km at 10 min,in vitro [9],314 ± 16 µM
same,Catalytic efficiency (Vmax/Km),"rat liver microsomes [4]; Sprague-Dawley, rat, pH 7.4",0.32 ml/min/mg protein
same,Scaled catalytic efficiency,"rat liver microsomes [4]; Sprague-Dawley, rat, pH 7.4",0.74 l/h/g liver
same,Vmax(app) glucuronidation (± SD),rat liver microsomes [4],101 ± 1.6 nmol/min/mg microsomal protein
same,Scaled Vmax(app),"rat liver microsomes [4]; rat, pH 7.4",231 µmol/h/g liver
same,"Potency ratio (phenol / p-substituted phenol), in vitro PBK approach",rat,0.7 fold
same,Concentration in EST culture medium over time,[6],decreased in time
same,Potency ratio / difference in BMC50 (phenol / p-substituted phenol) in the EST,ES-D3 cells,1.9 fold
"CCCCCCCOc1ccc(O)cc1 [p-Heptyloxyphenol, p-heptyloxyphenol]","ka, predicted oral absorption coefficient",Caco-2 cells; Caco-2,6.34 h⁻¹
same,"CLPL, predicted rat transplacental clearance",BeWo cells,0.026 L/h
same,Km,rat liver microsomes [4],2.1 ± 0.6 µM
same,Scaled Vmax(app),rat liver microsomes [4],137 µmol/h/g liver
same,Vmax(app) glucuronidation (± SD),rat liver microsomes [4],60 ± 4.5 nmol/min/mg microsomal protein
same,Concentration in EST culture medium over time,[6],stable
same,Fraction bound to albumin,albumin,0.99
same,Embryotoxic potency when hepatocytes were added,whole embryo culture,greatly reduced
"CC(=O)c1ccc(O)cc1 [p-Methylketophenol, p-methylketophenol]","ka, predicted oral absorption coefficient",Caco-2 cells; Caco-2,8.18 h⁻¹
same,"CLPL, predicted rat transplacental clearance",BeWo cells,0.12 L/h
same,Catalytic efficiency (Vmax/Km),rat liver microsomes [4],1.16 ml/min/mg protein
same,Km,rat liver microsomes [4],138 ± 17 µM
same,Scaled Vmax(app),rat liver microsomes [4],365 µmol/h/g liver
same,Scaled catalytic efficiency,rat liver microsomes [4],2.65 l/h/g liver
same,Vmax(app) glucuronidation (± SD),rat liver microsomes [4],160 ± 4.4 nmol/min/mg microsomal protein
same,"Potency ratio (phenol / p-substituted phenol), in vitro PBK approach",rat,0.5 fold
same,Concentration in EST culture medium over time,[6],stable
